Experimental data taken from patent US4496566A, “Naphthyridine derivatives” (Dainippon Pharmaceutical Co., Ltd., priority 1980, dated 1985).
Values after ≈ are worked out from the molar mass of the structure shown.

Experiments:
[1] = tested on: Streptococcus pyogenes A65; assay: MIC by agar dilution method; assay type: cell-based; conditions: read-out: minimum inhibitory concentration (MIC)
[2] = tested on: Corynebacterium pyogenes C-21; assay: MIC by agar dilution method; assay type: cell-based; conditions: Trueperella pyogenes, C21, read-out: minimum inhibitory concentration (MIC)
[3] = tested on: Escherichia coli NIHJ JC-2; assay: MIC by agar dilution method; assay type: cell-based; conditions: NIHJJC2, read-out: minimum inhibitory concentration (MIC)
Escherichia coli P-140a = assay: MIC by agar dilution method; assay type: cell-based; conditions: P140A, read-out: minimum inhibitory concentration (MIC)
[4] = tested on: Salmonella enteritidis No. 1891; assay: MIC by agar dilution method; assay type: cell-based; conditions: Salmonella enterica, read-out: minimum inhibitory concentration (MIC)
Proteus mirabilis P-2381 = assay: MIC by agar dilution method; assay type: cell-based; conditions: P2381, read-out: minimum inhibitory concentration (MIC)
Method: (§1) The minimum inhibitory concentrations (MIC: μg/ml) of the following compounds were measured by the agar dilution method according to the procedure described in Chemotherapy, Vol. 22, No. 16, page 1126 (1974).

Proteus morganii Kono = assay: MIC by agar dilution method; assay type: cell-based; conditions: Morganella morganii, read-out: minimum inhibitory concentration (MIC)
Method: as §1

[5] = tested on: Serratia marcescens IFO 3736; assay: MIC by agar dilution method; assay type: cell-based; conditions: IFO3736, read-out: minimum inhibitory concentration (MIC)
Method: as §1

Shigella flexneri 2a = assay: MIC by agar dilution method; assay type: cell-based; conditions: read-out: minimum inhibitory concentration (MIC)
Method: as §1

[6] = tested on: Shigella flexneri 4a P-330; assay: MIC by agar dilution method; assay type: cell-based; conditions: 4AP330, read-out: minimum inhibitory concentration (MIC)
Method: as §1

[7] = tested on: Streptococcus pyogenes A65; assay: In vivo therapeutic efficacy against systemic infections in mice; conditions: po, twice, about 5 minutes and 6 hours after intraperitoneal infection, male ddY mice, read-out: median effective dose (ED50)
Source text: Compound 1 of this invention obtained by the procedure described in Example 1 and compounds A and B were each suspended in a 0.2% aqueous solution of sodium carboxymethylcellulose. Each of the solutions was orally administered to mice infected with each of the test organisms under the conditions described below, and the median effective doses (ED50; mg/kg) obtained are shown in Table II. Male mice (ddY) weighing about 20 g (2) Streptococcus pyogenes […] Intraperitoneal infection with about 3×10^7 cells per mouse suspended in brain-heart infusion broth. […] Exp. Path. Pharm., 162, 480 (1931)].

[8] = tested on: Staphylococcus aureus No. 50774; assay: MIC by agar dilution method; assay type: cell-based; conditions: Gram-positive bacteria, read-out: minimum inhibitory concentration (MIC)
[9] = tested on: Streptococcus faecalis P-2473; assay: MIC by agar dilution method; assay type: cell-based; conditions: Enterococcus faecalis, P2473, read-out: minimum inhibitory concentration (MIC)
Escherichia coli P-5101 [10] = assay: MIC by agar dilution method; assay type: cell-based; conditions: P5101, read-out: minimum inhibitory concentration (MIC)
[11] = tested on: Salmonella typhimurium S-9; assay: MIC by agar dilution method; assay type: cell-based; conditions: Salmonella enterica, read-out: minimum inhibitory concentration (MIC)
[12] = tested on: Enterobacter cloacae P-2540; assay: MIC by agar dilution method; assay type: cell-based; conditions: P2540, read-out: minimum inhibitory concentration (MIC)
[13] = tested on: Pseudomonas aeruginosa Tsuchijima; assay: MIC by agar dilution method; assay type: cell-based; conditions: read-out: minimum inhibitory concentration (MIC)
[14] = tested on: Pseudomonas aeruginosa No. 12; assay: MIC by agar dilution method; assay type: cell-based; conditions: read-out: minimum inhibitory concentration (MIC)
[15] = tested on: Klebsiella pneumoniae No. 13; assay: MIC by agar dilution method; assay type: cell-based; conditions: read-out: minimum inhibitory concentration (MIC)
Method: as §1

[16] = tested on: Staphylococcus aureus 209P JC-1; assay: MIC by agar dilution method; assay type: cell-based; conditions: Gram-positive bacteria, read-out: minimum inhibitory concentration (MIC)
Method: as §1

[17] = tested on: Staphylococcus aureus No. 50774; assay: In vivo therapeutic efficacy against systemic infections in mice; conditions: NO.50774, 336 h, po, twice, about 5 minutes and 6 hours after intravenous infection, male ddY mice, observed 14 days, read-out: median effective dose (ED50)
Source text: Compound 1 of this invention obtained by the procedure described in Example 1 and compounds A and B were each suspended in a 0.2% aqueous solution of sodium carboxymethylcellulose. Each of the solutions was orally administered to mice infected with each of the test organisms under the conditions described below, and the median effective doses (ED50; mg/kg) obtained are shown in Table II. Male mice (ddY) weighing about 20 g (1) Staphylococcus aureus No. 50774: Intravenous infection with about 5×10^8 cells per mouse suspended in saline. […] Exp. Path. Pharm., 162, 480 (1931)].

Escherichia coli P-5101 [18] = assay: as above; conditions: P5101, 168 h, po, twice, about 5 minutes and 6 hours after intraperitoneal infection, male ddY mice, observed 7 days, read-out: median effective dose (ED50)
Source text: (§2) Compound 1 of this invention obtained by the procedure described in Example 1 and compounds A and B were each suspended in a 0.2% aqueous solution of sodium carboxymethylcellulose. Each of the solutions was orally administered to mice infected with each of the test organisms under the conditions described below, and the median effective doses (ED50; mg/kg) obtained are shown in Table II. Male mice (ddY) weighing about 20 g (3) Escherichia coli P-5101: Intraperitoneal infection with about 9×10^6 cells per mouse suspended in trypto-soy broth with 4% mucin. […] Exp. Path. Pharm., 162, 480 (1931)].

[19] = tested on: Pseudomonas aeruginosa No. 12; assay: as above; conditions: po, twice, about 5 minutes and 6 hours after intraperitoneal infection, male ddY mice, read-out: median effective dose (ED50)
Source text: as §2, with “(4) Pseudomonas aeruginosa No. 12:” for “(3) Escherichia coli P-5101:”, “4×10^3” for “9×10^6”

[20] = Acute oral toxicity in mice; conditions: mouse, in vivo, male ddY mice, deaths counted after 7 days, Behrens-Kaerber method, read-out: median lethal dose (LD50)
Method: A suspension containing each of compound 1 of the invention and compound A in various concentrations was orally given to male mice (ddY) at a volume of 0.1 ml per 10 g of body weight.

SMILES | MIC [1] [µg/mL] | MIC [2] [µg/mL] | MIC [3] [µg/mL] | MIC (Escherichia coli P-140a) [µg/mL] | MIC [4] [µg/mL] | MIC (Proteus mirabilis P-2381) [µg/mL] | MIC (Proteus morganii Kono) [µg/mL] | MIC [5] [µg/mL] | MIC (Shigella flexneri 2a) [µg/mL] | MIC [6] [µg/mL] | ED50 [7] [mg/kg] | MIC [8] [µg/mL] | MIC [9] [µg/mL] | MIC (Escherichia coli P-5101 [10]) [µg/mL] | MIC [11] [µg/mL] | MIC [12] [µg/mL] | MIC [13] [µg/mL] | MIC [14] [µg/mL] | MIC [15] [µg/mL] | MIC [16] [µg/mL] | other results
CCn1cc(C(=O)O)c(=O)c2cc(F)c(N3CCN(C)CC3)nc21 [Compound A, 1-Ethyl-6-fluoro-1,4-dihydro-7-(4-methyl-1-piperazinyl)-4-oxo-1,8-naphthyridine-3-carboxylic acid] | 6.25 (≈ 18.7 µM) | 6.25 (≈ 18.7 µM) | 0.39 (≈ 1.17 µM) | 0.39 (≈ 1.17 µM) | 0.1 (≈ 0.299 µM) | 3.13 (≈ 9.36 µM) | 0.78 (≈ 2.33 µM) | 1.56 (≈ 4.67 µM) | 0.39 (≈ 1.17 µM) | 0.78 (≈ 2.33 µM) | > 50 |  |  |  |  |  |  |  |  |  | 
CN1CCN(c2nc3c(cc2F)c(=O)c(C(=O)O)cn3CCF)CC1 [Compound 1, 6-Fluoro-1-(2-fluoroethyl)-1,4-dihydro-7-(4-methyl-1-piperazinyl)-4-oxo-1,8-naphthyridine-3-carboxylic acid] | 12.5 (≈ 35.5 µM) | 6.25 (≈ 17.7 µM) | 0.2 (≈ 0.568 µM) | 0.1 (≈ 0.284 µM) | 0.1 (≈ 0.284 µM) | 0.78 (≈ 2.21 µM) | 0.39 (≈ 1.11 µM) | 1.56 (≈ 4.43 µM) | 0.39 (≈ 1.11 µM) | 0.1 (≈ 0.284 µM) | 14.9 | 0.39 (≈ 1.11 µM) | 12.5 (≈ 35.5 µM) | 0.1 (≈ 0.284 µM) | 0.2 (≈ 0.568 µM) | 0.2 (≈ 0.568 µM) | 3.13 (≈ 8.88 µM) | 1.56 (≈ 4.43 µM) | 0.39 (≈ 1.11 µM) | 0.78 (≈ 2.21 µM) | ED50 [17]: 1.4 mg/kg; ED50 (Escherichia coli P-5101 [18]): 0.52 mg/kg; ED50 [19]: 4.2 mg/kg; LD50 at 168 h [20]: > 1800 mg/kg
O=C(O)c1cn(CCF)c2nc(N3CCNCC3)c(F)cc2c1=O [Compound B, 6-Fluoro-1-(2-fluoroethyl)-1,4-dihydro-4-oxo-7-(1-piperazinyl)-1,8-naphthyridine-3-carboxylic acid] | 12.5 (≈ 36.9 µM) | 1.56 (≈ 4.61 µM) | 0.2 (≈ 0.591 µM) | 0.1 (≈ 0.296 µM) | 0.1 (≈ 0.296 µM) | 0.39 (≈ 1.15 µM) | 0.2 (≈ 0.591 µM) | 0.39 (≈ 1.15 µM) | 0.2 (≈ 0.591 µM) | 0.1 (≈ 0.296 µM) | 50 | 1.56 (≈ 4.61 µM) | 12.5 (≈ 36.9 µM) | 0.1 (≈ 0.296 µM) | 0.1 (≈ 0.296 µM) | 0.1 (≈ 0.296 µM) | 0.78 (≈ 2.31 µM) | 0.78 (≈ 2.31 µM) | 0.78 (≈ 2.31 µM) | 0.39 (≈ 1.15 µM) | ED50 [17]: 11.5 mg/kg; ED50 (Escherichia coli P-5101 [18]): 3 mg/kg; ED50 [19]: 27.2 mg/kg
